From ChEMBL document CHEMBL4387741, “Optimization of novel reversible Bruton's tyrosine kinase inhibitors identified using Tethering-fragment-based screens” (Bioorg Med Chem, 2019)

How the values were obtained:
[1] = target: Serine/threonine-protein kinase Nek9 (Homo sapiens) (UniProt Q8TD19); assay: Inhibition of wild-type human partial length NEK9 (P32 to R328 residues) expressed in bacterial expression system at 1 uM by Kinomescan method relative to control
[2] = target: Casein kinase I isoform alpha-like (Homo sapiens) (UniProt Q8N752); assay: Inhibition of wild-type human full length CSNK1A1L (M1 to N337 residues) expressed in bacterial expression system at 1 uM by Kinomescan method relative to control
Chain of Casein kinase I isoform alpha-like (Homo sapiens) (Q8N752 whole entry, the tested form may be a part, canonical isoform): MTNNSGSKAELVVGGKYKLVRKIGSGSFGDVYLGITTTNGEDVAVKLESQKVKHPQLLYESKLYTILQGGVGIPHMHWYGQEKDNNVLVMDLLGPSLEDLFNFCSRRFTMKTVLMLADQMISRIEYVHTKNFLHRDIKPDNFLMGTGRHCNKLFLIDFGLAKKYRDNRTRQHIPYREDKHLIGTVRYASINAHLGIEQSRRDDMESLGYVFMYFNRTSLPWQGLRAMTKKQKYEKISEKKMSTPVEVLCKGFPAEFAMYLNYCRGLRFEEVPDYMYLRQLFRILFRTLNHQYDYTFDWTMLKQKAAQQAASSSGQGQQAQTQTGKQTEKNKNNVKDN

[3] = tested on: Epidermal growth factor receptor (Homo sapiens), P00533 [UNDEFINED MUTATION]; assay: Inhibition of human partial length EGFR L747-E749del/A750P mutant expressed in bacterial expression system at 1 uM by Kinomescan method relative to control
Chain of Epidermal growth factor receptor (Homo sapiens), P00533 [UNDEFINED MUTATION] (P00533 whole entry, looked up, stated change not applied, the tested form may be a part): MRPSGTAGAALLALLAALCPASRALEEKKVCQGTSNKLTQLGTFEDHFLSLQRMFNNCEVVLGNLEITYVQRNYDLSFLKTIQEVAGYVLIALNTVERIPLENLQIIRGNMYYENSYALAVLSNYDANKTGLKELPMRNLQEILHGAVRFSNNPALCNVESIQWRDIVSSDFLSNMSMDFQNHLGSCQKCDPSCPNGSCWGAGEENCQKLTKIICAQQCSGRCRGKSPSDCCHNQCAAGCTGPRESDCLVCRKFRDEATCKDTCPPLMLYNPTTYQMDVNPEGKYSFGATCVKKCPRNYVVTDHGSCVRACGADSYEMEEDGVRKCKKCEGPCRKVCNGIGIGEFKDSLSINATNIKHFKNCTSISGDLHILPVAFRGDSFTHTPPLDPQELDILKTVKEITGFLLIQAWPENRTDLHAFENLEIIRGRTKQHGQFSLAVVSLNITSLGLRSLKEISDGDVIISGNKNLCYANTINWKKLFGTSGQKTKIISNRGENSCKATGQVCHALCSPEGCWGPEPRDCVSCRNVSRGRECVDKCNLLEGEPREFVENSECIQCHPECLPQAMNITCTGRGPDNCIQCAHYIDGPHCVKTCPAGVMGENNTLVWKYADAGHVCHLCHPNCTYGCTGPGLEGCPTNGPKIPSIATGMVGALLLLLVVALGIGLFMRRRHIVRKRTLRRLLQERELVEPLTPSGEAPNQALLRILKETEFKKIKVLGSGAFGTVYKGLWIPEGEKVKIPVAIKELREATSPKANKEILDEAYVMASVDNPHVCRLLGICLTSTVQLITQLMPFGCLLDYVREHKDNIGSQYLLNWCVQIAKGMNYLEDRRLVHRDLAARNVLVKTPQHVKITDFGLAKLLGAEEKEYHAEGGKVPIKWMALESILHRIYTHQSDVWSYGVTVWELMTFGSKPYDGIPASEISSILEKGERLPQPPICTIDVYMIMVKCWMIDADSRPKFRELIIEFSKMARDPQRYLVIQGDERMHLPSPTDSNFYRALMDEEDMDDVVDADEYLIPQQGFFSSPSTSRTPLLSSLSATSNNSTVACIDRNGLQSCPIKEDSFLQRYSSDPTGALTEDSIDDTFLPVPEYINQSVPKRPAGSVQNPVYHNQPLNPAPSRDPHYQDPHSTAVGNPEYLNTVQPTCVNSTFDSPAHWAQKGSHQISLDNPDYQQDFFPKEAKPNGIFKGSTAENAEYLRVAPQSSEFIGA

[4] = target: Angiopoietin-1 receptor (Homo sapiens) (UniProt Q02763); assay: Inhibition of wild-type human partial length TIE2 (N804 to T1112 residues) expressed in bacterial expression system at 1 uM by Kinomescan method relative to control
[5] = target: Serine/threonine-protein kinase SIK2 (Homo sapiens) (UniProt Q9H0K1); assay: Inhibition of wild-type human full length SIK2 (M1 to N926 residues) expressed in bacterial expression system at 1 uM by Kinomescan method relative to control
[6] = target: Ephrin type-B receptor 1 (Homo sapiens) (UniProt P54762); assay: Inhibition of wild-type human partial length EPHB1 (P589 to T911 residues) expressed in bacterial expression system at 1 uM by Kinomescan method relative to control
Chain of Ephrin type-B receptor 1 (Homo sapiens) (P54762 whole entry, the tested form may be a part, canonical isoform): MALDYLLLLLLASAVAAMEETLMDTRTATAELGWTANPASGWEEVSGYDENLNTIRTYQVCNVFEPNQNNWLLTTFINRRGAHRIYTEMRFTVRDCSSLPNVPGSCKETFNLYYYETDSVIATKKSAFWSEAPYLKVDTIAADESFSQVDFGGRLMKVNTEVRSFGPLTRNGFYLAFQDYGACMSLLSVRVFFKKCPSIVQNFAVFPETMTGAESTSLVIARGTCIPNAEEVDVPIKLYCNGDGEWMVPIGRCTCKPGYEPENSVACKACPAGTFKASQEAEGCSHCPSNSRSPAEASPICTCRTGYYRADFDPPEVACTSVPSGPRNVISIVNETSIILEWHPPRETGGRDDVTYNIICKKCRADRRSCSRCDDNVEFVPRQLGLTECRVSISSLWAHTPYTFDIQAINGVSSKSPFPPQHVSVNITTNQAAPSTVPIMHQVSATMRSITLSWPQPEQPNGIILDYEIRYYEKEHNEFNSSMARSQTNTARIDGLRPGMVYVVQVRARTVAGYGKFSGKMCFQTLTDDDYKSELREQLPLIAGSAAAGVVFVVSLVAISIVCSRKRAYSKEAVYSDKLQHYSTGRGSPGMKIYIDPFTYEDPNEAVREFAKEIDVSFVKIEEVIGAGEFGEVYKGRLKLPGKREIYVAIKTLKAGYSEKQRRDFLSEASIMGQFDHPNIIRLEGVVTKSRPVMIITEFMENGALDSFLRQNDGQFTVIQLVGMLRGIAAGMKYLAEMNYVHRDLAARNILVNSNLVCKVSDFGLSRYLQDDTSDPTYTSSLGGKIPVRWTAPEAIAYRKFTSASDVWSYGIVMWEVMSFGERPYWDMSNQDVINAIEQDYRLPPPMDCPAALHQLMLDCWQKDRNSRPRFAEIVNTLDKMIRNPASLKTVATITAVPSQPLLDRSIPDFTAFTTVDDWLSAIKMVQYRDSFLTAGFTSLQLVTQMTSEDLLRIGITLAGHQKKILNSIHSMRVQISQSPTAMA

[7] = tested on: Phosphatidylinositol 4,5-bisphosphate 3-kinase catalytic subunit alpha isoform (Homo sapiens), P42336 [M1043I]; assay: Inhibition of human partial length PIK3CA M1043I mutant (R108 to N1068 residues) expressed in mammalian expression system at 1 uM by Kinomescan method relative to control
[8] = tested on: Hepatocyte growth factor receptor (Homo sapiens), P08581 [M1250T]; assay: Inhibition of human partial length MET M1250T mutant (D1010 to S1367 residues) expressed in bacterial expression system at 1 uM by Kinomescan method relative to control
[9] = tested on: Proto-oncogene tyrosine-protein kinase receptor Ret (Homo sapiens), P07949 [M918T]; assay: Inhibition of human partial length RET M918T mutant (E713 to D1014 residues) expressed in bacterial expression system at 1 uM by Kinomescan method relative to control
[10] = target: Mitogen-activated protein kinase kinase kinase 11 (Homo sapiens) (UniProt Q16584); assay: Inhibition of wild-type human partial length MLK3 (I77 to W399 residues) expressed in bacterial expression system at 1 uM by Kinomescan method relative to control
[11] = target: Serine/threonine-protein kinase PLK3 (Homo sapiens) (UniProt Q9H4B4); assay: Inhibition of wild-type human partial length PLK3 (A42 to L334 residues) expressed in mammalian expression system at 1 uM by Kinomescan method relative to control
[12] = target: Vascular endothelial growth factor receptor 3 (Homo sapiens) (UniProt P35916); assay: Inhibition of wild-type human partial length FLT4 (E821 to E1196 residues) expressed in bacterial expression system at 1 uM by Kinomescan method relative to control
[13] = target: Ribosomal protein S6 kinase alpha-4 (Homo sapiens) (UniProt O75676); assay: Inhibition of wild-type human partial length N-terminal RPS6KA4 kinase domain 1 expressed in bacterial expression system at 1 uM by Kinomescan method relative to control
[14] = target: Macrophage colony-stimulating factor 1 receptor (Homo sapiens) (UniProt P07333); assay: Inhibition of wild-type human partial length autoinhibited CSF1R (Y538 to S939 residues) expressed in mammalian expression system at 1 uM by Kinomescan method relative to control
Chain of Macrophage colony-stimulating factor 1 receptor (Homo sapiens) (P07333 whole entry, the tested form may be a part): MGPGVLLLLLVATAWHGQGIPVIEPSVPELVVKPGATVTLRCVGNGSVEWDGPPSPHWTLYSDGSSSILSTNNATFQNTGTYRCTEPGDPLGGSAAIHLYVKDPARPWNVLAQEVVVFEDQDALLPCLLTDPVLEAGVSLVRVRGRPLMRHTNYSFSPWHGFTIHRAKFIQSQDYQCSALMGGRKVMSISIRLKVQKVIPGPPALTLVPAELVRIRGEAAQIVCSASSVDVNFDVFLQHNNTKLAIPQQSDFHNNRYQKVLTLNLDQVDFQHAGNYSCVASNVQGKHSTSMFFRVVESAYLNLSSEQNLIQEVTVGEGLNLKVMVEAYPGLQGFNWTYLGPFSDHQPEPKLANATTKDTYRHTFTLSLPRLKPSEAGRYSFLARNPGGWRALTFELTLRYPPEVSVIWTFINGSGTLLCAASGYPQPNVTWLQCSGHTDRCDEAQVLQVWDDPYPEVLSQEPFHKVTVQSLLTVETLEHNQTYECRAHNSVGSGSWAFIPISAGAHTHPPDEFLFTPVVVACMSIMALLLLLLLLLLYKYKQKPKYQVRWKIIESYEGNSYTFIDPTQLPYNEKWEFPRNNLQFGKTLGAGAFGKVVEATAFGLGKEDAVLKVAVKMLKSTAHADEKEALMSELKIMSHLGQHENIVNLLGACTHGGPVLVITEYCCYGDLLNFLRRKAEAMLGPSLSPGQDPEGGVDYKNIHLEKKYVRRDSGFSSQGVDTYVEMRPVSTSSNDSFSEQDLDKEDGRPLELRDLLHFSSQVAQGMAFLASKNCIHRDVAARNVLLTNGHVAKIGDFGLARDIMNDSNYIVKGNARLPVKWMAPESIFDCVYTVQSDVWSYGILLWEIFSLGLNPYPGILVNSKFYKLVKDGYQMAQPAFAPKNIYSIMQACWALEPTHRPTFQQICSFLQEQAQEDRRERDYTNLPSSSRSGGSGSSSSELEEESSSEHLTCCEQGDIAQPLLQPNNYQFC

[15] = target: Death-associated protein kinase 3 (Homo sapiens) (UniProt O43293); assay: Inhibition of wild-type human partial length DAPK3 (M1 to A277 residues) expressed in bacterial expression system at 1 uM by Kinomescan method relative to control
[16] = tested on: Receptor-type tyrosine-protein kinase FLT3 (Homo sapiens), P36888 [UNDEFINED MUTATION]; assay: Inhibition of human partial length FLT3 ITD mutant expressed in bacterial expression system at 1 uM by Kinomescan method relative to control
[17] = target: Glycogen synthase kinase-3 beta (Homo sapiens) (UniProt P49841); assay: Inhibition of wild-type human full length GSK3B (M1 to T433 residues) expressed in mammalian expression system at 10 uM by Kinomescan method relative to control
Chain of Glycogen synthase kinase-3 beta (Homo sapiens) (P49841 whole entry, looked up, the tested form may be a part): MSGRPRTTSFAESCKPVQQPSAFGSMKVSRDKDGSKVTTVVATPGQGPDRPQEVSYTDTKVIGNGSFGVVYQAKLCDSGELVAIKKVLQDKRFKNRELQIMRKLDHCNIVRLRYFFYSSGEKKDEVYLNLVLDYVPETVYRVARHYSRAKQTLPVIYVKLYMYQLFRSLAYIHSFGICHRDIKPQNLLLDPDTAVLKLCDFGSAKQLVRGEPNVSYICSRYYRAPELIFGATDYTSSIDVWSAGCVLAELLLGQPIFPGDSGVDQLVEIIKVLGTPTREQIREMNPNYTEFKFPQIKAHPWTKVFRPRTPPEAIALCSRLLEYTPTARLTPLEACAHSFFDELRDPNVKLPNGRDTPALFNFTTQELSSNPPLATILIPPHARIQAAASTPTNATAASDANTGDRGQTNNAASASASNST

[18] = target: Serine/threonine-protein kinase MRCK beta (Homo sapiens) (UniProt Q9Y5S2); assay: Inhibition of wild-type human partial length MRCKB (L56 to S417 residues) expressed in bacterial expression system at 10 uM by Kinomescan method relative to control
[19] = target: Phosphatidylinositol 4,5-bisphosphate 3-kinase catalytic subunit beta isoform (Homo sapiens) (UniProt P42338); assay: Inhibition of wild-type human partial length PIK3CB (P118 to S1070 residues) expressed in mammalian expression system at 10 uM by Kinomescan method relative to control
Chain of Phosphatidylinositol 4,5-bisphosphate 3-kinase catalytic subunit beta isoform (Homo sapiens) (P42338 whole entry, looked up, the tested form may be a part, canonical isoform): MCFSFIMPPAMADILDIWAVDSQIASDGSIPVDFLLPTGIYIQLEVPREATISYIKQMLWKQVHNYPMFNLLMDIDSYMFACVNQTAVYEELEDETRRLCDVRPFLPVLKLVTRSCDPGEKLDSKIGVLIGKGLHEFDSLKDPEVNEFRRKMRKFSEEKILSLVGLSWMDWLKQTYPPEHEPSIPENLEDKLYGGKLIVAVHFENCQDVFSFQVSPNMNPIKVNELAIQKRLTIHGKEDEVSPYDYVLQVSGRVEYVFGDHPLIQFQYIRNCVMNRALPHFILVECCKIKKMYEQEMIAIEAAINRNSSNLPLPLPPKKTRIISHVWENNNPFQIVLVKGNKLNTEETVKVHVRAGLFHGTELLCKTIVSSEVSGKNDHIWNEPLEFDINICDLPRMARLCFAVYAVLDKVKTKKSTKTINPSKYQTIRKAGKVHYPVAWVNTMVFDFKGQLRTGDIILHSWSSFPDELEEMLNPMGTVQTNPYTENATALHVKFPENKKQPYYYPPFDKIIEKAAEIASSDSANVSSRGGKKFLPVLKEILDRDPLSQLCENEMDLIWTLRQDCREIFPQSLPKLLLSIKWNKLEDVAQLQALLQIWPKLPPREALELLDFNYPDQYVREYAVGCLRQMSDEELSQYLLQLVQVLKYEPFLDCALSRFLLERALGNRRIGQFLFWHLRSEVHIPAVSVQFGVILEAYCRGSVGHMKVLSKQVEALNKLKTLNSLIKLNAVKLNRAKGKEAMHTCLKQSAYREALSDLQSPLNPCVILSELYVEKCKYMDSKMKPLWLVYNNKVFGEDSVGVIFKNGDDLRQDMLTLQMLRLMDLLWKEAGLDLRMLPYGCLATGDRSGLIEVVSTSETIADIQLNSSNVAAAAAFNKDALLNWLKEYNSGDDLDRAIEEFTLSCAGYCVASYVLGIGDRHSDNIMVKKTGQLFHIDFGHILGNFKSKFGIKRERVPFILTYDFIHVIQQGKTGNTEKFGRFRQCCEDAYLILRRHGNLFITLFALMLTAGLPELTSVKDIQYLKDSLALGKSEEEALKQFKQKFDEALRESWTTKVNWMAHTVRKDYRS

[20] = target: Receptor-interacting serine/threonine-protein kinase 2 (Homo sapiens) (UniProt O43353); assay: Inhibition of wild-type human partial length RIPK2 (M1 to K310 residues) expressed in bacterial expression system at 10 uM by Kinomescan method relative to control
[21] = target: Rho-associated protein kinase 2 (Homo sapiens) (UniProt O75116); assay: Inhibition of wild-type human partial length ROCK2 (M1 to T431 residues) expressed in mammalian expression system at 10 uM by Kinomescan method relative to control
[22] = tested on: Epidermal growth factor receptor (Homo sapiens), P00533 [UNDEFINED MUTATION]; assay: Inhibition of human partial length EGFR S752-I759del mutant expressed in bacterial expression system at 10 uM by Kinomescan method relative to control
[23] = target: Homeodomain-interacting protein kinase 2 (Homo sapiens) (UniProt Q9H2X6); assay: Inhibition of wild-type human partial length HIPK2 (M153 to S564 residues) expressed in mammalian expression system at 10 uM by Kinomescan method relative to control
[24] = tested on: Phosphatidylinositol 4,5-bisphosphate 3-kinase catalytic subunit alpha isoform (Homo sapiens), P42336 [I800L]; assay: Inhibition of human partial length PIK3CA I800L mutant (R108 to N1068 residues) expressed in mammalian expression system at 10 uM by Kinomescan method relative to control
[25] = target: Serine/threonine-protein kinase 17B (Homo sapiens) (UniProt O94768); assay: Inhibition of wild-type human full length DRAK2 (M1 to C372 residues) expressed in bacterial expression system at 10 uM by Kinomescan method relative to control
[26] = target: Dual specificity mitogen-activated protein kinase kinase 3 (Homo sapiens) (UniProt P46734); assay: Inhibition of wild-type human full length MEK3 (M1 to S318 residues) expressed in mammalian expression system at 10 uM by Kinomescan method relative to control
[27] = target: TGF-beta receptor type-1 (Homo sapiens) (UniProt P36897); assay: Inhibition of wild-type human partial length TGFBR1 (D179 to M503 residues) expressed in bacterial expression system at 10 uM by Kinomescan method relative to control

In the case of O=C(Nc1cccc([C@@H]2CN(c3ncnc4[nH]ccc34)CCN2CCO)c1)Nc1c(F)cccc1N1CCCC1, the inhibition [1] is reported as 95%, the inhibition [2] is reported as 100% and the inhibition [3] is reported as 87%. For the same compound, the inhibition [4] was 99%, the inhibition [5] was 93% and the inhibition [6] was 97%. The inhibition [7] was 94%, the inhibition [8] was 91% and the inhibition [9] was 0.05%. It also gave an inhibition [10] of 100%, an inhibition [11] of 74% and an inhibition [12] of 16%. It also gave an inhibition [13] of 94%, an inhibition [14] of 83% and an inhibition [15] of 5.2%. For the same compound, the inhibition [16] was 8.7%.
Compound O=C(Nc1cccc([C@H]2CCCN(c3ncnc4[nH]ccc34)C2)c1)Nc1ccccc1N1CCCC1 has an inhibition [17] of 77%, an inhibition [18] of 90% and an inhibition [19] of 94%. For the same compound, the inhibition [20] was 100%, the inhibition [21] was 49% and the inhibition [22] was 78%. The inhibition [23] was 64%, the inhibition [24] was 34% and the inhibition [25] was 74%. It also gave an inhibition [26] of 54% and an inhibition [27] of 96%.
